Laboratory results from ChEMBL document CHEMBL3507680, “University of Dundee, Gates Library screen for HepG2 cell viability”.

assay: Human HepG2 cell viability assay in 384 well format; type: toxicity, cell-based; design: dose 125 nL, time 70.5 hour; cytotoxicity at 70.5 h: concentration not given beside the values; conditions: HepG2 cells, read-out: Inhibition

| Compound | cytotoxicity at 70.5 h [%] |
| --- | --- |
| Cc1cc(C)n(CCN2CCN(C(=O)c3ccccc3Br)CC2)n1 | -2.29 |
| Cc1cc(C)n(CCN2CCN(C(=O)c3cc4ccccc4o3)CC2)n1 | -0.14 |
| CCOCC(=O)NCC(Cc1cccc(F)c1)N1CCCCC1=O (stereo unspecified) | 30 |
| Cn1cc(C(=O)NCC(Cc2cccc(F)c2)N2CCCCC2=O)nn1 (stereo unspecified) | -14.8 |
| O=C1NCCN1C(CNS(=O)(=O)C1CC1)Cc1cccc(F)c1 (stereo unspecified) | -13.5 |
| CC(=O)NCC(Cc1cccc(F)c1)n1cccc1 (stereo unspecified) | -5.86 |
| CCC(=O)NCC(Cc1cccc(F)c1)n1cccc1 (stereo unspecified) | -7.66 |
| O=C(NCC(Cc1cccc(F)c1)n1cccc1)C1CC1 (stereo unspecified) | -16.2 |
| COCC(=O)NCC(Cc1cccc(F)c1)n1cccc1 (stereo unspecified) | 0.782 |
| O=S(=O)(c1ccccc1Br)N1CCC2(CC1)OCCS2 | -2.19 |
| O=C(NCc1c(F)cccc1F)C1CN(C(=O)c2cnccn2)C1 | -6.6 |
| CSc1ccccc1NC(=O)C1CN(C(=O)c2ccc3c(c2)OCO3)C1 | 0.521 |
| O=C(Nc1cccnc1)C1CN(C(=O)c2ccc3c(c2)OCO3)C1 | -14.4 |
| COCCCNC(=O)C1CN(C(=O)c2cnccn2)C1 | -15.7 |
| CCOC(=O)CNC(=O)C1CN(C(=O)c2cnccn2)C1 | -5.07 |
| O=C(Nc1cccnc1)C1CCN(c2cc(-n3ccnc3)ncn2)CC1 | -5.59 |
| O=C(Nc1cccnc1)C1CCCN(c2cc(-n3cccn3)ncn2)C1 (stereo unspecified) | 4.07 |
| CCS(=O)(=O)NCC1CCN(c2cnccn2)CC1 | -6.43 |
| O=S(=O)(NCC1CCN(c2cnccn2)CC1)c1ccc(F)c(Cl)c1 | -1.36 |
| COc1ccc(Cl)cc1C(=O)NCC1CCN(C(=O)c2ccoc2)CC1 | -15.3 |
| Cc1csc(C(=O)NCCN2CCC(c3cccs3)CC2)c1 | 35.6 |
| O=C(NCCN1CCC(c2cccs2)CC1)c1ccc(F)cc1Cl | -3.13 |
| CSCC(C)(O)CNC(=O)Nc1cc(C)cc(C)c1 (stereo unspecified) | -5.72 |

| Compound | cytotoxicity at 70.5 h [%] |
| --- | --- |
| CSCCC(C)(O)CNS(=O)(=O)Cc1ccc(F)cc1 (stereo unspecified) | -17 |
| CSc1ccccc1C(=O)NCCC(O)c1ccco1 (stereo unspecified) | 16.9 |
| CSc1ncccc1C(=O)NCCC(O)c1cccs1 (stereo unspecified) | -2.95 |
| O=S(=O)(NCCC(O)c1cccs1)c1ccccc1Cl (stereo unspecified) | -10.8 |
| O=C(Nc1nc2c(s1)CN(C(=O)NCc1cccs1)CC2)C1CC1 | -9.79 |
| O=C(Nc1nc2c(s1)CN(S(=O)(=O)C1CC1)CC2)c1ccccn1 | -1.49 |
| O=C(Nc1nc2c(s1)CN(S(=O)(=O)C1CC1)CC2)Nc1ccccc1F | 23.7 |
| O=C(Nc1cccc(C(F)(F)F)c1)N1CCN(CCn2ccnc2)CC1 | -10.1 |
| COc1nn(C)cc1C(=O)NCC1(O)CCOCC1 | -3.26 |
| O=C(NCC1CCOC1)Nc1ccc(Oc2ccc(F)cc2)nc1 (stereo unspecified) | 15.8 |
| CC(Nc1cccc(CN2CCOC2=O)c1)C(=O)NC(=O)NC(C)(C)C (stereo unspecified) | -16.7 |
| Cn1cc(NC(=O)N2CCC(OCc3ccccc3)CC2)ccc1=O | -9.18 |
| CCN(CC)c1ccc(C(=O)N2CCCC2Cn2cc(C)cn2)cn1 (stereo unspecified) | -5.59 |
| COCCOc1ccc(C(=O)N2CCCC(n3cncn3)C2)cn1 (stereo unspecified) | 10.1 |
| CCC1c2ccsc2CCN1C(=O)NCc1cc(C)on1 (stereo unspecified) | -4.73 |
| c1cnnc(N2CCCC2CNCc2nc(-c3ccoc3)no2)c1 (stereo unspecified) | 10 |
| Cc1cnn(C2CCCN(C(=O)Cc3cn4ccsc4n3)C2)c1 (stereo unspecified) | -5.39 |
| Cn1cc(CN2CCCN(C(=O)c3ccc4ccccc4n3)CC2)cn1 | -13 |
| O=C(CN1CC(c2nc(C3CC3)no2)C1)N1CCOCC1 | -17.5 |
| c1cncc(-c2noc(C3CN(Cc4cccs4)C3)n2)c1 | -12.2 |
| c1cnc(-c2noc(C3CN(Cc4ccc5c(c4)CCO5)C3)n2)cn1 | -9.18 |
| COc1cc(COCC2CCN(Cc3ccccn3)CC2)cc(OC)c1 | -8.26 |
| CN(CCO)CC1COCCN1C(=O)C1(c2cccs2)CCCC1 (stereo unspecified) | -1 |
